Reference: publication PMC5556109, “A combinatorial approach for the discovery of cytochrome P450 2D6 inhibitors from nature” (Scientific Reports, 2017)
Read-outs that look alike come from different tables or passages of the source.

Assays:
CYP2D6 [1] = biological target: T1, CYP2D6 (Homo sapiens, UniProt P10635); experiment: in vitro; details: recombinant enzyme, pH 7.4
Protocol: (§1) Their CYP2D6 inhibitory potential was determined at a concentration of 100 µM in a final reaction volume of 50 µl. […] All compounds were dissolved in DMSO and the concentration thereof in the final reaction volume was 1%, according to the limitations indicated in the manufacturer’s protocol. […] To take into account the background luminescence, which may derive from a non-enzymatic conversion of ME-luciferin-EGE to luciferin, we included a ‘minus P450’ control that contained no CYP2D6 enzyme. In order to quantify CYP2D6 activity, we subtracted background values prior to calculating the percentage of total luminescence (% TL) obtained from the solvent control (set to 100%). Low % TL indicates low CYP2D6 activity.
(§2) In the three minus P450 control wells, 12.25 µl of the 4× reaction mixture was added. […] The plate was incubated for 10 minutes. The CYP2D6 enzyme reaction was initiated by the addition of 25 µl of 2× NADPH regeneration system (2.6 mM NADP^+, 6.6 mM glucose-6-phosphate, 6.6 mM MgCl2 and 0.8 U/ml glucose-6-phosphate dehydrogenase buffered in 0.1 mM sodium citrate at pH 5.5; Promega). After 45 minutes incubation, the enzyme reaction was stopped by the addition of 50 µl of the luciferin detection reagent, which contained also the esterase for the generation of the luminescence signal. The plate was incubated in the dark for 20 minutes in order to stabilize the signal measured by a Tecan infinite F200 PRO plate reader. […] The maximum allowed DMSO concentration in the final reaction mix was 1% according to the manufacturer’s protocol. The experiment was performed at room temperature and under prevention of excessive UV-light at minimum on two independent days (n = 2).
(§3) Concentration-dependent CYP2D6 inhibition assays were performed by preparing a 5-step dilution series of the 400 µM compound solutions. […] After this dilution step, 12.5 µl of each dilution was transferred to the assay plate. The assay was performed as described above. The DMSO concentration was kept constant for all concentrations with a maximum of 1%. The experiments were performed on three independent experimental days (n = 3).
(§4) Raw data obtained from Tecan infinite F200 PRO plate reader was processed by calculating total luminescence (% of untreated control) by applying the formula: raw data − (background luminescence) * 100/mean of negative control.

[2] = tested on: P450-Glo detection reaction (unspecific esterase and modified firefly-luciferase); experiment: P450-Glo detection reaction control (luciferin-EGE, esterase, luciferase, test compound, no CYP2D6)
Text: (§5) This detection-reagent consists of i) a detergent that stops the CYP2D6 enzyme reaction, ii) an unspecific esterase that continuously releases luciferin and iii) a modified firefly-luciferase, thus a stable luminogenic signal is generated, which can be quantified by a luminometer (Fig. 1). The detection reaction is incorporated in the P450-Glo CYP2D6 inhibition assay. However, we implemented additional controls for unspecific interactions of the test compounds with the detection reaction. For this purpose, the previously established luminescence quenching control reaction reported by Modarai et al.[9] was adapted to our requirements with modifications for the use of larger sample volumes. In addition, Modarai et al. converted ME-luciferin-EGE to luciferin in the absence of a test compound and then evaluated the inhibition of the luciferase reaction.We conducted the control step by using pure luciferin-EGE, esterase, luciferase and a test compound in the absence of CYP2D6 (Supplementary Table S4).
(§6) The quantification of the P450-Glo detection reaction was performed by subtracting the background values prior to calculating the percentage of total luminescence (% TL) based on the total luminescence obtained from the solvent control (set to 100%).
(§7) We then added 12.5 µl 4× reaction mixture (5 µl 1.5 mM luciferin-EGE stock solution, 500 µl 1 M KPO4 buffer and 745 µl luciferase free water) to the wells. Finally, 25 µl of the 2× NADPH regeneration system was added. In order to initiate the detection reaction, 50 µl of the reconstituted luciferin detection reagent containing the esterase was added to the samples, positive and solvent control wells. This step was followed by 20 minutes incubation in the dark for signal stabilization. In the wells reserved for background luminescence, luciferase-free water was added. Measurements were performed on a Tecan infinite F200 PRO plate reader on two independent days (n = 2) at minimum.
as §4
(§8) A one-way ANOVA followed by Dunnett’s multiple comparisons test was performed. […] A p-value of < 0.05 was used to indicate significance.

CYP2D6 [3] = biological target: T1, CYP2D6; experiment: P450-Glo CYP2D6 inhibition assay (bioluminescence-based; pre-screen at 100 µM and IC50 determination); details: for classification of CYP2D6 inhibition (actives / weak actives / inactives): ranked by IC50, inactives from pre-screen at 100 µM
Protocol: as §1, §2, §3, §4

CYP2D6 [4] = biological target: T1, CYP2D6; details: recombinant enzyme
Protocol: as §1, §2, §3, §4

[5] = tested on: P450-Glo detection reaction (unspecific esterase and modified firefly-luciferase)
Text: as §5, §6, §7, §4, §8

firefly-luciferase = details: cited from earlier work
CYP2D6 [6] = tested on: CYP2D6; set-up: method as in earlier work; details: ME-luciferin-EGE as CYP2D6 substrate; cited from earlier work
CYP2D6 [7] = experiment: CYP2D6 inhibition of virtual hits already reported in the literature; details: authors' classification of the literature value, Supplementary Table S2
Text: the hits according to non-available CYP2D6 inhibition data, plant origin and availability. The

CYP2D6 [8] = details: Supplementary Table S2, supplementary reference list, cited from earlier work; for IC50: read-out: Inhibitory potency IC50

T1 sequence (P10635 whole entry): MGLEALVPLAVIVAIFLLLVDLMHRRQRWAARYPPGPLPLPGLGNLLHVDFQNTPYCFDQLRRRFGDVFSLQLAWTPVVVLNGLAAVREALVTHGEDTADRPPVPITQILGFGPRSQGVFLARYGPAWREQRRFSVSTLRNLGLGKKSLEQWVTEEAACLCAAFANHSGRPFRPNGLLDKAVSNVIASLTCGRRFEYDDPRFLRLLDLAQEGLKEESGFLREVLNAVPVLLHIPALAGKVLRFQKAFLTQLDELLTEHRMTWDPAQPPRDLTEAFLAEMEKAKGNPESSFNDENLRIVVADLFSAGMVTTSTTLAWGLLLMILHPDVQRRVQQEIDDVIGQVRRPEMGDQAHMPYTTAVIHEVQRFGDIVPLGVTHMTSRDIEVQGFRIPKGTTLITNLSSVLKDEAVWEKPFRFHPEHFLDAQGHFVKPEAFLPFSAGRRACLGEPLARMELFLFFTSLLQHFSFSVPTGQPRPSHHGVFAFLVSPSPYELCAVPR

COC(=O)C1=CO[C@@H](C)[C@@H]2CN3CC[C@@]4(C(=O)Nc5ccccc54)[C@@H]3C[C@H]12 [Compound 2, Isopteropodine]
inhibition at 100 µM (CYP2D6 [1]): 56.8%
P450-Glo Detection Reaction MEAN Diff. (inhibition of the detection reaction) ([2]; 50 µM test compound, difference to DMSO 1% control): 7.57%
P450-Glo Detection Reaction MEAN (total luminescence) ([2]; 50 µM test compound, no CYP2D6, DMSO control = 100): 92.43 % TL
p < 0.05 (significant inhibition of the P450-Glo detection reaction) ([2]; 50 µM, one-way ANOVA, Dunnett's test vs DMSO control): Yes
IC50 (CYP2D6 [3]): 89.1 µM
total luminescence in CYP2D6 inhibition pre-screen (CYP2D6 [3]; 100 µM test compound, solvent control = 100%, low % TL = low CYP2D6 activity): 43.22 % TL
classification of CYP2D6 inhibition (actives / weak actives / inactives) (CYP2D6 [3]): weak actives

COc1ccc(Cc2nccc3cc(OC)c(OC)cc23)cc1OC [Compound 6, Papaverine]
classification of CYP2D6 inhibition (actives / weak actives / inactives) (CYP2D6 [4]): actives (key: actives: those compounds were classified as active, which exhibited CYP2D6 IC50 values up to 10 µM; inactives showed less than 50 % total luminescence at a concentration of 100 µM)
P450-Glo Detection Reaction MEAN (total luminescence) [5]: 82.48 % TL
IC50 (CYP2D6 [3]): 7.02 µM

CN1Cc2c(ccc3c2OCO3)[C@@H]2[C@H]1c1cc3c(cc1C[C@@H]2O)OCO3 [Compound 21, (+)-Chelidonine]
classification of CYP2D6 inhibition (actives / weak actives / inactives) (CYP2D6 [4]): actives (key: actives: those compounds were classified as active, which exhibited CYP2D6 IC50 values up to 10 µM; inactives showed less than 50 % total luminescence at a concentration of 100 µM)
total luminescence in CYP2D6 inhibition pre-screen (CYP2D6 [4]; 100 µM): 0.45 % TL
P450-Glo Detection Reaction MEAN (total luminescence) [5]: 98.77 % TL
inhibition at 100 µM (CYP2D6 [1]): 99.5%
IC50 (CYP2D6 [3]): 0.0225 µM

Oc1ccc(/C=C/c2cc(O)cc(O)c2)cc1 [Compound 24, Resveratrol, reference compound]
inhibition of firefly-luciferase (firefly-luciferase): lower micromolar range
classification of CYP2D6 inhibition (actives / weak actives / inactives) (CYP2D6 [3]): weak actives

COc1ccc2nc(C3=NC(C(=O)OCCO)CS3)sc2c1 (stereo not drawn) [ME-luciferin-EGE, methoxy-luciferin-ethylene glycol ester]
turnover number (kcat) (CYP2D6 [6]): 0.118 s⁻¹

COC1=C[C@@H]2[C@@H]3Cc4ccc(OC)c(O)c4[C@]2(CCN3C)CC1=O [Sinomenine]
Classification of literature CYP2D6 inhibition (CYP2D6 [7]): inactive
Inhibitory potency (CYP2D6 [8]; at 50 µM): no inhibition

COc1cc2c(cc1OC)[C@@H]1Cc3ccc(OC)c(OC)c3CN1CC2 [Tetrahydropalmatine]
Classification of literature CYP2D6 inhibition (CYP2D6 [7]): active
IC50 (CYP2D6 [8]): 3.04 ± 0.26 µM

CCC12C=CCN3CC[C@@]4(c5ccc(OC)cc5N(C)[C@H]4[C@@](O)(C(=O)OC)[C@@H]1OC(C)=O)[C@@H]32 (stereo partly drawn) [Vindoline]
Classification of literature CYP2D6 inhibition (CYP2D6 [7]): active
IC50 (CYP2D6 [8]): 15.9 µM
